Experimental data from US20260109707A1, “HETEROBIFUNCTIONAL COMPOUNDS AND METHODS OF TREATING DISEASE” (Halda Therapeutics OpCo. Inc., priority 2022, published 2026).
Read-outs that look alike come from different tables or passages of the source.

Legend:
[1] = tested on: T-Rex 293 cell line SC3 cells lacking increased expression of androgen receptor protein; test: Cellular growth inhibition assay, T-Rex 293 SC3 cells without doxycycline (CellTiter-Glo, 72 hours); assay type: cell-based; conditions: T-Rex 293 cell line SC3 cells not exposed to doxycycline (lacking increased androgen receptor expression)
In short: (§1)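 Doxycycline (10 ng/mL) was either included or omitted to toggle wild-type androgen receptor expression in SC3 cells, a T-Rex 293 clone, grown in stripped-serum, phenol red-free medium. After 72 hours with compound, viable cells were quantified by CellTiter-Glo 2.0.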

T47D cells = test: Cellular growth inhibition assay for T47D cells (CellTiter-Glo, 72 hours); assay type: cell-based, human; conditions: 72 hours treatment
In short: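 Cells are plated at 3000/well and allowed 24 h before treatment. Test compound in medium containing 0.5% DMSO is then added, with DMSO-only wells as negative control, and plates are incubated 72 h at 37 °C. ATP luminescence (CellTiter-Glo 2.0) is then fitted to four parameters to derive GI50.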

[2] = tested on: T-Rex 293 cell line SC3 cells having increased expression of androgen receptor protein due to exposure to doxycycline; test: Cellular growth inhibition assay, T-Rex 293 SC3 cells with doxycycline (CellTiter-Glo, 72 hours); assay type: cell-based; conditions: T-Rex 293 SC3 cells with increased androgen receptor expression due to doxycycline (10 ng/mL)
In short: as §1

VCaP cells = test: Cellular growth inhibition assay for VCaP cells (CellTiter-Glo, 72 hours); assay type: cell-based, human
In short: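 Luminescent viability signal after 72 h of compound exposure gave GI50 values by four-parameter nonlinear regression. Compounds were added in 0.5% DMSO to cells plated 24 h earlier at 5000/well in DMEM containing 10% FBS.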

| Compound | GI50 (T47D cells; Homo sapiens, T47D, 72 h) | GI50 (VCaP cells; Homo sapiens, VCaP, 72 h) | GI50 (VCaP cells) | GI50 (T47D cells) | GI50 ([1]; 72 h) | GI50 ([2]; 72 h) | GI50 [1] | GI50 [2] |
| --- | --- | --- | --- | --- | --- | --- | --- | --- |
| Cc1sc2c(c1C)C(c1ccc(C#C[C@H]3C[C@]4(CCCN(c5ccc(C(=O)N[C@H]6CC[C@H](Oc7ccc(C#N)c(Cl)c7)CC6)nn5)C4)C3)cc1)=N[C@@H](Cc1ncco1)c1nnc(C)n1-2 [I-234] | < 500 nM | < 500 nM |  |  | < 500 nM | < 500 nM |  |  |
| Cc1sc2c(c1C)C(c1ccc(C#C[C@H]3C[C@@]4(CCCN(c5ccc(C(=O)N[C@H]6CC[C@H](Oc7ccc(C#N)c(Cl)c7)CC6)nn5)C4)C3)cc1)=N[C@@H](Cc1ncco1)c1nnc(C)n1-2 [I-235] | < 500 nM | < 500 nM |  |  | < 500 nM | < 500 nM |  |  |
| Cc1sc2c(c1C)C(c1ccc([C@H]3CC[C@H](N4CCCN(c5ccc(C(=O)N[C@H]6CC[C@H](Oc7ccc(C#N)c(Cl)c7)CC6)nn5)CC4)CC3)cc1)=N[C@@H](Cc1ncco1)c1nnc(C)n1-2 [I-236] | > 3000 nM | > 3000 nM |  |  | > 3000 nM | < 500 nM |  |  |
| Cc1sc2c(c1C)C(c1ccc(OC3CC4(CCN(c5ccc(C(=O)N[C@H]6CC[C@H](Oc7ccc(C#N)c(Cl)c7)CC6)nn5)CC4)C3)cc1)=N[C@](C)(C(C)c1ncco1)c1nnc(C)n1-2 (stereo partly drawn) [I-237] | < 500 nM | > 3000 nM |  |  | > 3000 nM | < 500 nM |  |  |
| Cc1sc2c(c1C)C(c1ccc(CNC(=O)CN(C)c3ccc(C(=O)N[C@H]4CC[C@H](Oc5ccc(C#N)c(Cl)c5)CC4)nn3)cc1)=N[C@@H](Cc1ncco1)c1nnc(C)n1-2 [I-243] | 500 to 1500 nM | 500 to 1500 nM |  |  | 500 to 1500 nM | < 500 nM |  |  |
| Cc1sc2c(c1C)C(c1ccc([C@H]3CC[C@@H](N4CCCN(c5ccc(C(=O)N[C@H]6CC[C@H](Oc7ccc(C#N)c(Cl)c7)CC6)nn5)CC4)CC3)cc1)=N[C@@H](Cc1ncco1)c1nnc(C)n1-2 [I-244] | > 3000 nM | > 3000 nM |  |  | > 3000 nM | < 500 nM |  |  |
| Cc1sc2c(c1C)C(c1ccc(OC3CC4(CCN(c5ccc(C(=O)N[C@H]6CC[C@H](Oc7ccc(C#N)c(Cl)c7)CC6)nn5)CC4)C3)cc1)=N[C@@H](CC(C)(C)O)c1nnc(C)n1-2 [I-245] | > 3000 nM | < 500 nM |  |  | > 3000 nM | < 500 nM |  |  |
| Cc1sc2c(c1C)C(c1ccc(O[C@H]3C[C@@H](N(C(C)C)C4CCN(c5ccc(C(=O)N[C@H]6CC[C@H](Oc7ccc(C#N)c(Cl)c7)CC6)nn5)CC4)C3)cc1)=N[C@@H](Cc1ncco1)c1nnc(C)n1-2 [I-246] | < 500 nM | < 500 nM |  |  | < 500 nM | < 500 nM |  |  |
| Cc1sc2c(c1C)C(c1ccc(OC3CC4(CCCN(c5ccc(C(=O)N[C@H]6CC[C@H](Oc7ccc(C#N)c(Cl)c7)CC6)nn5)C4)C3)nc1)=N[C@@H](Cc1ncco1)c1nnc(C)n1-2 (stereo partly drawn) [I-247] | < 500 nM | < 500 nM |  |  | < 500 nM | < 500 nM |  |  |
| Cc1sc2c(c1C)C(c1ccc(CCC(=O)N3CCN(c4ccc(C(=O)N[C@H]5CC[C@H](Oc6ccc(C#N)c(Cl)c6)CC5)nn4)CC3)cc1)=N[C@@H](Cc1ncco1)c1nnc(C)n1-2 [I-249] | < 500 nM | < 500 nM |  |  | 500 to 1500 nM | < 500 nM |  |  |
| Cc1sc2c(c1C)C(c1ccc(CC[C@H]3CCCN(c4ccc(C(=O)N[C@H]5CC[C@H](Oc6ccc(C#N)c(Cl)c6)CC5)nn4)C3)cc1)=N[C@@H](Cc1ncco1)c1nnc(C)n1-2 [I-254] | < 500 nM | < 500 nM |  |  | < 500 nM | < 500 nM |  |  |
| Cc1sc2c(c1C)C(c1ccc(OCC[C@@H]3CCCN(c4ccc(C(=O)N[C@H]5CC[C@H](Oc6ccc(C#N)c(Cl)c6)CC5)nn4)C3)cc1)=N[C@@H](Cc1ncco1)c1nnc(C)n1-2 [I-256] | < 500 nM | < 500 nM |  |  | < 500 nM | < 500 nM |  |  |
| Cc1sc2c(c1C)C(c1ccc(OCC[C@H]3CCCN(c4ccc(C(=O)N[C@H]5CC[C@H](Oc6ccc(C#N)c(Cl)c6)CC5)nn4)C3)cc1)=N[C@@H](Cc1ncco1)c1nnc(C)n1-2 [I-257] | < 500 nM | < 500 nM |  |  | < 500 nM | < 500 nM |  |  |

More lines, main results first:

| GI50 (T47D cells; Homo sapiens, T47D, 72 h) | GI50 (VCaP cells; Homo sapiens, VCaP, 72 h) | GI50 (VCaP cells) | GI50 (T47D cells) | Compound | GI50 ([1]; 72 h) | GI50 ([2]; 72 h) | GI50 [1] | GI50 [2] |
| --- | --- | --- | --- | --- | --- | --- | --- | --- |
| < 500 nM | < 500 nM |  |  | Cc1sc2c(c1C)C(c1ccc(CNC(=O)N3CCC(c4ccc(C(=O)N[C@H]5CC[C@H](Oc6ccc(C#N)c(Cl)c6)CC5)nn4)CC3)cc1)=N[C@@H](Cc1ncco1)c1nnc(C)n1-2 [I-228] | > 3000 nM | < 500 nM |  |  |
| 1500 to 3000 nM | 500 to 1500 nM |  |  | Cc1sc2c(c1C)C(c1ccc(CNC(=O)[C@H]3CCCN(c4ccc(C(=O)N[C@H]5CC[C@H](Oc6ccc(C#N)c(Cl)c6)CC5)nn4)C3)cc1)=N[C@@H](Cc1ncco1)c1nnc(C)n1-2 [I-229] | 500 to 1500 nM | < 500 nM |  |  |
| 1500 to 3000 nM | 500 to 1500 nM |  |  | Cc1sc2c(c1C)C(c1ccc(CNC(=O)[C@@H]3CCCN(c4ccc(C(=O)N[C@H]5CC[C@H](Oc6ccc(C#N)c(Cl)c6)CC5)nn4)C3)cc1)=N[C@@H](Cc1ncco1)c1nnc(C)n1-2 [I-230] | 500 to 1500 nM | < 500 nM |  |  |
| 500 to 1500 nM |  | > 3000 nM |  | Cc1sc2c(c1C)C(c1ccc(N3CCC(CNC(=O)c4ccc(C(=O)N[C@H]5CC[C@H](Oc6ccc(C#N)c(Cl)c6)CC5)nn4)CC3)cc1)=N[C@@H](Cc1ncco1)c1nnc(C)n1-2 [I-231] |  |  | > 3000 nM | > 3000 nM |
|  |  | < 500 nM | < 500 nM | Cc1sc2c(c1C)C(c1ccc(N3CCC(CNC(=O)c4ccc(C(=O)N[C@H]5CC[C@H](Oc6ccc(C#N)c(Cl)c6)CC5)nn4)CC3)cc1)=N[C@@H](Cc1ncco1)c1nnc(C)n1-2 [I-232] |  |  | 500 to 1500 nM | < 500 nM |
| 500 to 1500 nM | < 500 nM |  |  | Cc1sc2c(c1C)C(c1ccc(CNC(=O)CNC(=O)c3ccc(C(=O)N[C@H]4CC[C@H](Oc5ccc(C#N)c(Cl)c5)CC4)nn3)cc1)=N[C@@H](Cc1ncco1)c1nnc(C)n1-2 [I-233] | > 3000 nM | < 500 nM |  |  |
| > 3000 nM | > 3000 nM |  |  | Cc1sc2c(c1C)C(c1ccc(C(=O)N3CCN(C(=O)c4ccc(C(=O)N[C@H]5CC[C@H](Oc6ccc(C#N)c(Cl)c6)CC5)nn4)CC3)cc1)=N[C@@H](Cc1ncco1)c1nnc(C)n1-2 [I-238] | > 3000 nM | > 3000 nM |  |  |
| > 3000 nM | 1500 to 3000 nM |  |  | Cc1sc2c(c1C)C(c1ccc(C(=O)N3CCN(C(=O)c4ccc(C(=O)N[C@H]5CC[C@H](Oc6ccc(C#N)c(Cl)c6)CC5)nn4)CC3)cc1)=N[C@H](Cc1ncco1)c1nnc(C)n1-2 [I-239] | > 3000 nM | < 500 nM |  |  |
| 500 to 1500 nM | > 3000 nM |  |  | Cc1sc2c(c1C)C(c1ccc(C(=O)N3CCC(Cc4ccc(C(=O)N[C@H]5CC[C@H](Oc6ccc(C#N)c(Cl)c6)CC5)nn4)CC3)cc1)=N[C@@H](Cc1ncco1)c1nnc(C)n1-2 [I-240] | > 3000 nM | < 500 nM |  |  |
| 500 to 1500 nM | 500 to 1500 nM |  |  | Cc1sc2c(c1C)C(c1ccc(C(=O)N3CCC(Cc4ccc(C(=O)N[C@H]5CC[C@H](Oc6ccc(C#N)c(Cl)c6)CC5)nn4)CC3)cc1)=N[C@H](Cc1ncco1)c1nnc(C)n1-2 [I-241] | 500 to 1500 nM | < 500 nM |  |  |
| < 500 nM | < 500 nM |  |  | Cc1sc2c(c1C)C(c1ccc(CN3CCN(C(=O)c4ccc(C(=O)N[C@H]5CC[C@H](Oc6ccc(C#N)c(Cl)c6)CC5)nn4)CC3)cc1)=N[C@@H](Cc1ncco1)c1nnc(C)n1-2 [I-242] | < 500 nM | < 500 nM |  |  |
| < 500 nM | < 500 nM |  |  | Cc1sc2c(c1C)C(c1ccc(NCC(=O)N3CCC(c4ccc(C(=O)N[C@H]5CC[C@H](Oc6ccc(C#N)c(Cl)c6)CC5)nn4)CC3)cc1)=N[C@H](Cc1ncco1)c1nnc(C)n1-2 [I-248] | 500 to 1500 nM | < 500 nM |  |  |
| 500 to 1500 nM | > 3000 nM |  |  | Cc1sc2c(c1C)C(c1ccc(N3CCN(C(=O)c4ccc(C(=O)N[C@H]5CC[C@H](Oc6ccc(C#N)c(Cl)c6)CC5)nn4)CC3)cc1)=N[C@@H](Cc1ncco1)c1nnc(C)n1-2 [I-250] | > 3000 nM | < 500 nM |  |  |
| < 500 nM | < 500 nM |  |  | Cc1sc2c(c1C)C(c1ccc(N3CCN(C(=O)c4ccc(C(=O)N[C@H]5CC[C@H](Oc6ccc(C#N)c(Cl)c6)CC5)nn4)CC3)cc1)=N[C@H](Cc1ncco1)c1nnc(C)n1-2 [I-251] | 500 to 1500 nM | < 500 nM |  |  |
| < 500 nM | < 500 nM |  |  | Cc1sc2c(c1C)C(c1ccc(C[C@@H]3CCCN(c4ccc(C(=O)N[C@H]5CC[C@H](Oc6ccc(C#N)c(Cl)c6)CC5)nn4)C3)cc1)=N[C@@H](Cc1ncco1)c1nnc(C)n1-2 [I-252] | < 500 nM | < 500 nM |  |  |
| < 500 nM | < 500 nM |  |  | Cc1sc2c(c1C)C(c1ccc(C[C@H]3CCCN(c4ccc(C(=O)N[C@H]5CC[C@H](Oc6ccc(C#N)c(Cl)c6)CC5)nn4)C3)cc1)=N[C@@H](Cc1ncco1)c1nnc(C)n1-2 [I-253] | < 500 nM | < 500 nM |  |  |
| 500 to 1500 nM | < 500 nM |  |  | Cc1sc2c(c1C)C(c1ccc(CC[C@@H]3CCCN(c4ccc(C(=O)N[C@H]5CC[C@H](Oc6ccc(C#N)c(Cl)c6)CC5)nn4)C3)cc1)=N[C@@H](Cc1ncco1)c1nnc(C)n1-2 [I-255] | < 500 nM | < 500 nM |  |  |
